Measurements from patent publication US6844352B2, “1′-[4-[1-(4-fluorophenyl)-1H-indole-3-yl]-1-butyl]-spiro[isobenzofuran-1(3H),4′-piperidine] hydrohalogenides” (H. Lundbeck A/S, priority 1997, dated 2005).

What was measured:
[1] = Bioavailability study after multiple oral administration in Beagle dogs (serum levels by HPLC); assay type: in vivo; settings: both sexes, dog, area under serum concentration versus time curve 0-24 hours after dosing on day 7, 10 mg/kg/day (as free base) orally in gelatine capsules for 7 days, read-out: AUC0-24.7 Mean
Description: After multiple administration in Beagle dogs, the bioavailability of the salts of 1′-[4-[1-(4-fluorophenyl)-1H-indole-3-yl]-1-butyl]-spiro[isobenzofuran-1(3H),4′-piperidine] was investigated as described in the following study:
Two groups, each consisting of four Beagle dogs (2 males and 2 females) were used in the study.
The dogs in the individual groups were given single daily doses of 10 mg/kg/day (calculated as free base) of the fumarate and the hydrochloride of 1′-[4-[1-(4-fluorophenyl)-1H-indole-3-yl]-1-butyl]-spiro[isobenzofuran-1(3H),4′-piperidine] for seven days.
Blood samples for serum preparation were drawn from the test animals at specific nominal time points before and after dosing on each day and analyzed using HPLC. […]
Single doses of the different salts corresponding to 10.0 mg (˜21997 nmol ) of 1′-[4-[1-(4-fluorophenyl)-1H-indole-3-yl]-1-butyl]-spiro[isobenzofuran-1(3H),4′-piperidine] per kg body weight were accurately weighed into gelatine capsules. The calculated amounts of test compound for each dog were based on body weights measured at study start. […]
The exact blood sampling times for each dog relative to the first dose were recorded. […]
The serum samples obtained were analysed for content of 1′-[4-[1-(4-fluorophenyl)-1H-indole-3-yl]-1-butyl]-spiro[isobenzofuran-1(3H),4′-piperidine] by a pseudo-normal phase HPLC-method after liquid-liquid extraction. […]

Aqueous solubility = assay type: physicochemical
[2] = Bioavailability experiments in rats; assay type: in vivo
[3] = Bioavailability experiments in dogs; assay type: in vivo
sigma receptors = settings: cited from earlier work
rats = settings: cited from earlier work
sigma receptor = settings: cited from earlier work

Q: Which AUC(0-t) [1] does the source give for `Fc1ccc(-n2cc(CCCCN3CCC4(CC3)OCc3ccccc34)c3ccccc32)cc1.O=C(O)/C=C/C(=O)O` [Fumarate, 1′-[4-[1-(4-fluorophenyl)-1H-indole-3-yl]-1-butyl]-spiro[isobenzofuran-1(3H),4′-piperidine], fumarate] here?
A: Its AUC(0-t) is 4.02 µM·h.

Q: What about the aqueous solubility (Aqueous solubility) of the same compound?
A: The aqueous solubility was “very low”.

Q: And the bioavailability [2]?
A: The bioavailability was “limited bioavailablity”.

Q: And the bioavailability [3]?
A: Its bioavailability is “limited bioavailablity”.

Q: With `Cl.Fc1ccc(-n2cc(CCCCN3CCC4(CC3)OCc3ccccc34)c3ccccc32)cc1` [Hydrochloride, 1′-[4-[1-(4-fluorophenyl)-1H-indole-3-yl]-1-butyl]-spiro[isobenzofuran-1(3H),4′-piperidine], hydrochloride] as the compound, how does the AUC(0-t) [1] read?
A: Its AUC(0-t) is 12 µM·h.

Q: And the “water solubility compared to the fumarate” value (Aqueous solubility)?
A: The value was “improved water solubility”.

Q: For `Fc1ccc(-n2cc(CCCCN3CCC4(CC3)OCc3ccccc34)c3ccccc32)cc1` [free base, 1′-[4-[1-(4-fluorophenyl)-1H-indole-3-yl]-1-butyl]-spiro[isobenzofuran-1(3H),4′-piperidine]], which aqueous solubility (Aqueous solubility) is on record?
A: Its aqueous solubility is “very low”.

Q: And the “sigma ligand potency and selectivity” value (sigma receptors)?
A: Its value is “potent and selective sigma ligand”.

Q: And the “anxiolytic potential in black/white exploration test” value (rats)?
A: The value was “active over a large dose range”.

Q: For `C[C@@H]1CN(CCCn2c3ccccc3c3ccccc32)C[C@H](C)N1` [rimcazole], which “clinical effect in the treatment of psychoses” value (sigma receptor) is on record?
A: The value was “clinically shows effect”.
